What is called IC50 is the concentration that gives 50% inhibition.

The target of test [1] is ABL1 (T315I) (Homo sapiens, UniProt P00519, T315I). Description: Luminescence-based ABL kinase assay (ADP-Glo, 300 μM ATP), T315I mutant. The format is biochemical. The procedure:
(§1) Kinase activity of ABL1 was measured using the ADP-Glo system (Promega), which measures formation of ADP using a luminescence-based method. Compounds were serially diluted in DMSO. 20 nL of compound or DMSO only (high control, HC) were added to a 384-well plate (OptiPlate-384, PerkinElmer) using an Echo550 liquid handler (Labcyte). 15 μL of kinase solution (10 mM MgCl2, 0.01% Brij-35, 2 mM DTT, 0.05% BSA, 1 mM EGTA, 50 mM HEPES pH 7.5, and 3.325 nM ABL1 [Carna Biosciences]) were added to each well of the 384-well plate containing the compounds. No enzyme control wells were included (low control, LC). The plate was incubated at room temperature for 30 minutes. 5 μL of a second solution containing 10 mM MgCl2, 0.01% Brij-35, 2 mM DTT, 0.05% BSA, 1 mM EGTA, 50 mM HEPES pH 7.5, 6 μM Peptide 2 (Perkin Elmer, Cat No 760346), and 1.2 mM ATP were added to each well to start the kinase reaction. The plate was incubated for 90 minutes at room temperature. 20 μL of ADP-Glo reagent (Promega) were then added to each well and the plate was incubated for 40 minutes at room temperature. 40 μL of kinase detection reagent (Promega) was added to each well and the plate was incubated for an additional 45 minutes at room temperature. During this step, ADP was converted to ATP, a substrate for luciferase, to produce luminescence signal. Luminescence was measured on an Envision plate reader (Perkin Elmer). Luminescence signal positively correlates with kinase activity. The percent kinase activity was calculated as follows: percent kinase activity=100×(Lumsample−LumLC)/(LumHC−LumLC). As noted above, DMSO only and no enzyme wells were used as high and low controls, respectively. IC50 values were calculated using the XLFit software.

Test [2] concerns the target T1, ABL1 (Homo sapiens, UniProt P00519).
T1 construct: purchased Carna Biosciences
The test can be described thus: Luminescence-based ABL kinase assay (ADP-Glo, 300 μM ATP). The format is biochemical. Here is the method: as §1
(ADP-Glo turns the ADP formed in a reaction into a luminescent signal.)

Structures are written as SMILES. A value given as a limit tells only on which side of the number the result lay.

In the case of `O=C(Nc1ccc2c(-c3ccc4c(c3)NCC4)c[nH]c2n1)C1CC1` [Compound 25, N-[3-(2,3-dihydro-1H-indol-6-yl)-1H-pyrrolo[2,3-b]pyridin-6-yl]cyclopropanecarboxamide], the IC50 in test [1] turned out to be 74.3 nM; in test [2], 776 nM.
The corresponding values for `COc1c(-c2c[nH]c3nc(NC(=O)[C@@H]4C[C@@H]4F)ccc23)ccn2ccnc12` [Compound 114, (1S,2S)-2-fluoro-N-(3-[8-methoxyimidazo[1,2-a]pyridin-7-yl]-1H-pyrrolo[2,3-b]pyridin-6-yl)cyclopropane-1-carboxamide] are 150 nM and 51.4 nM.
With `COc1c(-c2c[nH]c3nc(NC(=O)C4CC4)ccc23)ccc2[nH]ncc12` [Compound 16, N-[3-(4-methoxy-1H-indazol-5-yl)-1H-pyrrolo[2,3-b]pyridin-6-yl]cyclopropanecarboxamide], the IC50 in test [1] and in test [2] was above 10000 nM throughout.
On to `Cn1cc(-c2c[nH]c3nc(NC(=O)C4CC4)ccc23)ccc1=O` [Compound 57, N-[3-(1-methyl-6-oxopyridin-3-yl)-1H-pyrrolo[2,3-b]pyridin-6-yl]cyclopropanecarboxamide], for which the IC50 in test [1] was 3870 nM; in test [2], 1090 nM.
The corresponding values for `CNc1ccc(-c2c[nH]c3nc(NC(=O)C4CC4)ccc23)c(OC)n1` [Compound 30, N-[3-[2-methoxy-6-(methylamino)pyridin-3-yl]-1H-pyrrolo[2,3-b]pyridin-6-yl]cyclopropanecarboxamide] are 90.2 nM and 148 nM.
Taken in the same sequence, the figures for `COc1cc2cn[nH]c2cc1-c1c[nH]c2nc(NC(=O)[C@H]3C[C@H]3F)ccc12` [Compound 59, (1R,2R)-2-fluoro-N-[3-(5-methoxy-1H-indazol-6-yl)-1H-pyrrolo[2,3-b]pyridin-6-yl]cyclopropane-1-carboxamide] were 11 nM and 8.62 nM.
For `COc1ncc(F)cc1-c1c[nH]c2nc(NC(=O)NCCN(C)C)ccc12` [Compound 80, 3-[2-(dimethylamino)ethyl]-1-[3-(5-fluoro-2-methoxypyridin-3-yl)-1H-pyrrolo[2,3-b]pyridin-6-yl]urea], the figures for the IC50 in test [1] and in test [2] were 659 nM and 1050 nM, respectively.
The corresponding values for `COc1c(-c2c[nH]c3nc(NC(=O)[C@@H]4C[C@@H]4F)ccc23)ccc2nccn12` [Compound 73, (1S,2S)-2-fluoro-N-(3-(5-methoxyimidazo[1,2-a]pyridin-6-yl)-1H-pyrrolo[2,3-b]pyridin-6-yl)cyclopropane-1-carboxamide] are above 10000 nM and 2460 nM.
The corresponding values for `COc1c(-c2c[nH]c3nc(NC(=O)[C@@H]4C[C@@H]4F)ccc23)ccc2ncnn12` [Compound 134, (1S,2S)-2-fluoro-N-(3-[5-methoxy-[1,2,4]triazolo[1,5-a]pyridin-6-yl]-1H-pyrrolo[2,3-b]pyridin-6-yl)cyclopropane-1-carboxamide] are 227 nM and 64.8 nM.
Turning to `CNc1cc(C)c(-c2c[nH]c3nc(NC(=O)C4CC4)ccc23)cn1` [Compound 35, N-[3-[4-methyl-6-(methylamino)pyridin-3-yl]-1H-pyrrolo[2,3-b]pyridin-6-yl]cyclopropanecarboxamide], the IC50 worked out at 774 nM in test [1] and 599 nM in test [2].
Taken in the same sequence, the figures for `COc1nc2nccn2cc1-c1c[nH]c2nc(NC(=O)[C@@H]3C[C@@H]3F)ccc12` [Compound 128, (1S,2S)-2-fluoro-N-(3-(7-methoxyimidazo[1,2-a]pyrimidin-6-yl)-1H-pyrrolo[2,3-b]pyridin-6-yl)cyclopropane-1-carboxamide] were 97.1 nM and 24.9 nM.
The corresponding values for `O=C(Nc1ccc2c(-c3c(F)cccc3F)c[nH]c2n1)C1CC1` [Compound 46, N-(3-(2,6-difluorophenyl)-1H-pyrrolo[2,3-b]pyridin-6-yl)cyclopropanecarboxamide] are 20.6 nM and 86.4 nM.
Taken in the same sequence, the figures for `COc1ncccc1-c1c(C)[nH]c2nc(NC(=O)[C@@H]3C[C@@H]3F)ccc12` [Compound 89, (1S,2S)-2-fluoro-N-(3-(2-methoxypyridin-3-yl)-2-methyl-1H-pyrrolo[2,3-b]pyridin-6-yl)cyclopropane-1-carboxamide] were 219 nM and 337 nM.
Turning to `Cc1cc(N)ncc1-c1c[nH]c2nc(NC(=O)C3CC3)ccc12` [Compound 34, N-[3-(6-amino-4-methylpyridin-3-yl)-1H-pyrrolo[2,3-b]pyridin-6-yl]cyclopropanecarboxamide], the IC50 in test [1] was determined as 731 nM; in test [2] it was 159 nM.
Taken in the same sequence, the figures for `Nc1cccc(-c2c[nH]c3nc(NC(=O)C4CC4)ccc23)n1` [Compound 38, N-(3-(6-aminopyridin-2-yl)-1H-pyrrolo[2,3-b]pyridin-6-yl)cyclopropanecarboxamide] were 332 nM and 689 nM.
`CN(C)c1ncccc1-c1c[nH]c2nc(NC(=O)C3CC3)ccc12` [Compound 65, N-(3-(2-(dimethylamino)pyridin-3-yl)-1H-pyrrolo[2,3-b]pyridin-6-yl)cyclopropanecarboxamide]: the IC50 in test [1] turned out to be 8700 nM; in test [2] it was 158 nM.
Regarding `COc1ccccc1-c1c[nH]c2nc(NC(=O)[C@H]3C[C@@H]3CC#N)ccc12` (relative stereo) [Compound 107, trans-2-(cyanomethyl)-N-(3-(2-methoxyphenyl)-1H-pyrrolo[2,3-b]pyridin-6-yl)cyclopropane-1-carboxamide], the IC50 was found to be 19.5 nM in test [1] and 151 nM in test [2].
As to `COc1ccccc1-c1c[nH]c2nc(NC(=O)NCCN(C)C)ccc12` [Compound 97, 3-[2-(dimethylamino)ethyl]-1-[3-(2-methoxyphenyl)-1H-pyrrolo[2,3-b]pyridin-6-yl]urea], the results for the IC50 in test [1] and in test [2] were 61.6 nM and 199 nM, respectively.
Taken in the same sequence, the figures for `COc1c(F)cccc1-c1n[nH]c2nc(NC(=O)[C@@H]3C[C@@H]3F)ccc12` [Compound 100, (1S,2S)-2-fluoro-N-(3-(3-fluoro-2-methoxyphenyl)-1H-pyrazolo[3,4-b]pyridin-6-yl)cyclopropane-1-carboxamide] were 105 nM and 98.2 nM.
The corresponding values for `O=C(Nc1ccc2c(-c3ccn4ccnc4c3)c[nH]c2n1)C1CC1` [Compound 55, N-(3-[imidazo[1,2-a]pyridin-7-yl]-1H-pyrrolo[2,3-b]pyridin-6-yl)cyclopropanecarboxamide] are 1030 nM and 114 nM.
Take `COc1cccc(OC)c1-c1c[nH]c2nc(NC(=O)C3CC3CN3CCNCC3)ccc12` (single isomer, unassigned) [Example S150, Enantiomer 2, N-[3-(2,6-dimethoxyphenyl)-1H-pyrrolo[2,3-b]pyridin-6-yl]-2-(piperazin-1-ylmethyl)cyclopropane-1-carboxamide]: the IC50 was 27.2 nM in test [1] and 30 nM in test [2].
Taken in the same sequence, the figures for `CNc1cccc(-c2c[nH]c3nc(NC(=O)C4CC4)ccc23)n1` [Compound 39, N-(3-(6-(methylamino)pyridin-2-yl)-1H-pyrrolo[2,3-b]pyridin-6-yl)cyclopropanecarboxamide] were 245 nM and 195 nM.
On to `O=C(Nc1ccc2c(-c3ccc4cc[nH]c4c3)c[nH]c2n1)C1CC1` [Compound 20, N-(3-(1H-indol-6-yl)-1H-pyrrolo[2,3-b]pyridin-6-yl)cyclopropanecarboxamide], for which the IC50 in test [1] was 27.7 nM; in test [2] it was 110 nM.
Taken in the same sequence, the figures for `COc1cc2scnc2cc1-c1c[nH]c2nc(NC(=O)NCCN3CCNCC3)ccc12` [Compound 140, 3-[3-(6-methoxy-1,3-benzothiazol-5-yl)-1H-pyrrolo[2,3-b]pyridin-6-yl]-1-[2-(piperazin-1-yl)ethyl]urea] were 82.5 nM and 30.6 nM.
The corresponding values for `COc1ccccc1-c1c[nH]c2nc(NC(=O)NC3CC3)ccc12` [Compound 123, 3-cyclopropyl-1-[3-(2-methoxyphenyl)-1H-pyrrolo[2,3-b]pyridin-6-yl]urea] are 17.6 nM and 56.5 nM.
The corresponding values for `COc1cccc(OC)c1-c1c[nH]c2nc(NC(=O)NCC3CNC3)ccc12` [Compound 129, 1-(azetidin-3-ylmethyl)-3-(3-(2,6-dimethoxyphenyl)-1H-pyrrolo[2,3-b]pyridin-6-yl)urea] are 35.8 nM and 32.9 nM.
Regarding `Nc1ccc(-c2c[nH]c3nc(NC(=O)C4CC4)ccc23)cn1` [Compound 40, N-[3-(6-aminopyridin-3-yl)-1H-pyrrolo[2,3-b]pyridin-6-yl]cyclopropanecarboxamide], the half-inhibitory concentration (IC50) stood at 170 nM in test [1] and 121 nM in test [2].

Source of the values: patent publication US20240043420A1, “7-AZAINDOLE COMPOUNDS FOR INHIBITION OF BCR-ABL TYROSINE KINASES” (EnLiven Therapeutics, Inc., priority 2020, published 2024).
